Results taken from US6958221B2, “Cell flow apparatus and method for real-time measurements of patient cellular responses” (Caliper Life Sciences, Inc., priority 1996, dated 2005).
Where a SMILES comes first, the peptide text is derived from it. [ ]: non-standard residue; d: D form.

Target: T1, endothelin subtype A receptor ETAR (Homo sapiens, UniProt P25101)
T1 construct: TE-671 cells, human medulloblastoma (ATCC CRL 8805), naturally express endothelin subtype A receptor ETAR; host or cells: TE-671 human medulloblastoma cells
T1 sequence (P25101 21-427): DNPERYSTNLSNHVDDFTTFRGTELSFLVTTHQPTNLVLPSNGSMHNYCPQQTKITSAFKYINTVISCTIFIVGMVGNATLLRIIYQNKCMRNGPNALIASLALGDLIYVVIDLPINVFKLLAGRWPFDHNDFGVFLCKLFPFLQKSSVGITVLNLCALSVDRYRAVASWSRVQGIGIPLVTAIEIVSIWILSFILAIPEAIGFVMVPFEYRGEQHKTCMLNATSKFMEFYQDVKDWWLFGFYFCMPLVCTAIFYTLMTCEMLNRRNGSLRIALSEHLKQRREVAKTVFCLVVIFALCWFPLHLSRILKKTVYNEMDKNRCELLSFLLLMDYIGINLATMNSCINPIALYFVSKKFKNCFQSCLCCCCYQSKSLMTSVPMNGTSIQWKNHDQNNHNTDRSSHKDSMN
Test: ET-1 induced intracellular calcium mobilization in TE-671 cells (flow apparatus, FURA-2)
Format: cell-based
Description: TE-671 cells, human medulloblastoma (ATCC CRL 8805), naturally express endothelin subtype A receptor ETAR.
The apparatus was a negative pressure computer controlled unit as described above. This run was performed in the presence of several concentrations of ETAR specific competitive antagonist BQ-123 (shown in nanomolar concentration).
TE-671 cells were prepared for use in the cell physiometer of the present invention by growing them in a T75 flask until confluence. The growth media was decanted and the cells were washed twice with Dulbecco's phosphate buffered saline (DPBS) and supplemented with a fresh DPBS containing 2 μM FURA-2AM, which easily penetrates into cell cytoplasm and is hydrolyzed there with nonspecific esterases to form FURA 2, a dye which is sensitive to the ionized form of calcium. After 30 min incubation, the cells were supplemented with the equal volume of fresh DPBS and incubated for further 30 min. The cells, now loaded with the dye, were detached from the flask bottom with 0.05% Trypsin-EDTA solution. The cells were then washed twice with DPBS, containing 0.1% soybean trypsin inhibitor, and resuspended in calcium-free, magnesium-free and phenol red-free Dulbecco's modified Eagle's medium (DMEM).
This gives three fold final dilution for each component of the flow passing through mixing zone 343 and eventually, detector 355. The proportioning valve 327, was programmed for the first, second and third runs to give final BQ-123 concentration of zero, 10 nM and 40 nM, respectively.
The flow rate and the length of the reaction developing line were chosen so that the time interval from the point of mixing the cells with the compound to the point of signal detection in the flow-through optical cell was 40 seconds.

With `CC(C)C[C@@H]1NC(=O)[C@@H](C(C)C)NC(=O)[C@@H]2CCCN2C(=O)[C@@H](CC(=O)O)NC(=O)[C@@H](Cc2c[nH]c3ccccc23)NC1=O` [BQ-123] (cyclo(L[dW][dD]P[dV])) the Kb was 11 nM, the “type of inhibition (shift of ET-1 activation curves)” value (TE-671 cells, activation curves parallel shifted to the right in the presence of BQ-123) was “competitive type of inhibition” and the Ki (TE-671 cells, corresponds to the pA2 value, read-out: inhibition constant, K1) was 11 nM.
